Measured values reported in patent US20240108623A1, “METHODS OF TREATING CANCER WITH POZIOTINIB” (BOARD OF REGENTS, THE UNIVERSITY OF TEXAS SYSTEM, priority 2021, published 2024).

Columns and labels:
EGFR A767insASV = target: T1, EGFR A767insASV (Homo sapiens, UniProt P00533, DUP767-769); assay: Ba/F3 cell drug screening, Cell Titer Glo; assay type: cell-based; conditions: Ba/F3 cells expressing EGFR A767insASV; 72 hours
T1 construct: expressed in transfected cells; host or cells: Ba/F3 (retroviral, pBabe-Puro based vector)
Description: (§1) Ba/F3 cell generation, drug screening, and IC50 approximations. Ba/F3 cells were obtained as a gift from Dr. Gordon Mills (MD Anderson Cancer Center), and maintained in RPMI (Sigma) containing 10% FBS, 1% penicillin/streptomycin, and 10 ng/ml recombinant mIL-3 (R&D Biosystems). To establish stable Ba/F3 cell lines, Ba/F3 cells were transduced with retroviruses containing mutant EGFR plasmids for 12-24 hours. Retroviruses were generated using Lipofectamine 2000 (Invitrogen) transfections of Phoenix 293T-ampho cells (Orbigen) with pBabe-Puro based vectors listed below in Table 6. Vectors were generated by GeneScript or Bioinnovatise using parental vectors from Addgene listed below in Table 6.
(§2) After 48-72 hours of transduction, 2 μg/ml puromycin (Invitrogen) was added to Ba/F3 cell lines in complete RPMI. To select for EGFR positive cell lines, cells were stained with PE-EGFR (Biolegend) and sorted by FACS. After sorting, EGFR positive cells were maintained in RPMI containing 10% FBS, 1% penicillin/streptomycin, and 1 ng/ml EGF to support cell viability. Drug screening was performed as previously described^41,42. Shortly, cells were plated in 384-well plates (Greiner Bio-One) at 2000-3000 cells per well in technical triplicate. Seven different concentrations of TKIs or DMSO vehicle were added to reach a final volume of 40 μL per well. After 72 hours, 11p L of Cell Titer Glo (Promega) was added to each well. Plates were incubated for a minimum of 10 minutes, and bioluminescence was determined using a FLUOstar OPTIMA plate reader (BMG LABTECH). Raw bioluminescence values were normalized to DMSO control treated cells, and values were plotted in GraphPad Prism. Non-linear regressions were used to fit the normalized data with a variable slope, and IC50 values were determined by GraphPad prism by interpolation of concentrations at 50% inhibition. Drug screens were performed in technical triplicate on each plate and either duplicate or triplicate biological replicates. Mutant to WT ratios (Mut/WT) for each drug were calculated by dividing the IC50 values of mutant cell lines by the average IC50 value of Ba/F3 cells expressing WT EGFR supplemented with 10 ng/ml EGF for each drug. Statistical differences between groups were determined by ANOVA as described in the figure legends.

EGFR Ex19del G796S = target: T2, EGFR Ex19del G796S (Homo sapiens, UniProt P00533, DEL746-750/G796S); assay: Ba/F3 cell drug screening, Cell Titer Glo; assay type: cell-based; conditions: Ba/F3 cells expressing EGFR Ex19del G796S; 72 hours
T2 construct: expressed in transfected cells; host or cells: Ba/F3 (retroviral transduction, pBabe-Puro based vectors)
Description: as §1, §2

EGFR Ex19del L718Q = target: T3, EGFR Ex19del L718Q (Homo sapiens, UniProt P00533, DEL746-750/L718Q); assay: Ba/F3 cell drug screening, Cell Titer Glo; assay type: cell-based; conditions: Ba/F3 cells expressing EGFR Ex19del L718Q; 72 hours
T3 construct: expressed in transfected cells; host or cells: Ba/F3 (murine pro-B cells), retroviral transduction with pBabe-Puro based vectors
Description: as §1, §2

EGFR G719A T790M = target: T4, EGFR G719A T790M (Homo sapiens, UniProt P00533, G719A/T790M); assay: Ba/F3 cell drug screening, Cell Titer Glo; assay type: cell-based; conditions: Ba/F3 cells expressing EGFR G719A T790M; 72 hours
T4 construct: expressed in transfected cells; host or cells: Ba/F3 (retroviral transduction, pBabe-Puro based vectors)
Description: as §1, §2

EGFR G719S T790M = target: T5, EGFR G719S T790M (Homo sapiens, UniProt P00533, G719S/T790M); assay: Ba/F3 cell drug screening, Cell Titer Glo; assay type: cell-based; conditions: Ba/F3 cells expressing EGFR G719S T790M; 72 hours
T5 construct: expressed in transfected cells; host or cells: Ba/F3 (retroviral transduction, pBabe-Puro based vectors)
Description: as §1, §2

EGFR L858R G724S = target: T6, EGFR L858R G724S (Homo sapiens, UniProt P00533, G724S/L858R); assay: Ba/F3 cell drug screening, Cell Titer Glo; assay type: cell-based; conditions: Ba/F3 cells expressing EGFR L858R G724S; 72 hours
T6 construct: expressed in transfected cells; host or cells: Ba/F3 (murine pro-B cells), retroviral transduction with pBabe-Puro based vectors
Description: as §1, §2

EGFR N771dupN G724S = target: T7, EGFR N771dupN G724S (Homo sapiens, UniProt P00533, DUP771-771/G724S); assay: Ba/F3 cell drug screening, Cell Titer Glo; assay type: cell-based; conditions: Ba/F3 cells expressing EGFR N771dupN G724S; 72 hours
T7 construct: expressed in transfected cells; host or cells: Ba/F3 (retroviral, pBabe-Puro based vector; created by GeneScript from EGFR G724S, c.2313_2314insAAC)
Description: as §1, §2

EGFR R776C = target: T8, EGFR R776C (Homo sapiens, UniProt P00533, R776C); assay: Ba/F3 cell drug screening, Cell Titer Glo; assay type: cell-based; conditions: Ba/F3 cells expressing EGFR R776C; 72 hours
T8 construct: host or cells: Ba/F3 (retroviral transduction, pBabe-Puro based vectors)
Description: as §1, §2

EGFR S768dupSVD = target: T9, EGFR S768dupSVD (Homo sapiens, UniProt P00533, DUP768-770); assay: Ba/F3 cell drug screening, Cell Titer Glo; assay type: cell-based; conditions: Ba/F3 cells expressing EGFR S768dupSVD; 72 hours
T9 construct: expressed in transfected cells; host or cells: Ba/F3 (retroviral, pBabe-Puro based vector)
Description: as §1, §2

EGFR S768dupSVD V769M = target: T10, EGFR S768dupSVD V769M (Homo sapiens, UniProt P00533, INS768MDS/V769M); assay: Ba/F3 cell drug screening, Cell Titer Glo; assay type: cell-based; conditions: Ba/F3 cells expressing EGFR S768dupSVD V769M; 72 hours
T10 construct: expressed in transfected cells; host or cells: Ba/F3 (retroviral, pBabe-Puro based vector; created by GeneScript from EGFR S768dupSVD, c.2305G > A)
Description: as §1, §2

EGFR T725M = target: T11, EGFR T725M (Homo sapiens, UniProt P00533, T725M); assay: Ba/F3 cell drug screening, Cell Titer Glo; assay type: cell-based; conditions: Ba/F3 cells expressing EGFR T725M; 72 hours
T11 construct: expressed in transfected cells; host or cells: Ba/F3 (retroviral, pBabe-Puro based vector; created by GeneScript from EGFR WT)
Description: as §1, §2

[1] = tested on: PDXs harboring EGFR S768dupSVD exon 20 loop insertion mutation; assay: PDX tumor growth; assay type: in vivo, mice; conditions: drug 5 days per week, day 21
[2] = tested on: PDXs with G719A mutations; assay: PDX tumor growth; assay type: in vivo, mice; conditions: 2.5 mg/kg poziotinib; 5 mg/kg and 20 mg/kg osimertinib; five days per week, day 28
[3] = tested on: lung adenocarcinomas harboring EGFR L858R mutations, acquired L718V mutation; assay: Case study of patient treated with second-generation TKI; assay type: in vivo, human; conditions: acquired L718V after first-line osimertinib
Excerpt: Case studies of patients treated with second-generation TKIs. Patients were consented under the GEMINI protocol (PA13-0589) which was approved in accordance with the MD Anderson Institutional Review Board.

C=CC(=O)N1CCC(Oc2cc3c(Nc4ccc(Cl)c(Cl)c4F)ncnc3cc2OC)CC1 [Poziotinib]
Response of Cells Comprising Ex20ins EGFR Mutations to Poziotinib (EGFR A767insASV): 0.3183
Response of Cells Comprising PACC EGFR Mutations to Second-Generation TKIs (EGFR Ex19del G796S): 0.2054
Response of Cells Comprising PACC EGFR Mutations to Second-Generation TKIs (EGFR Ex19del L718Q): 0.107
Response of Cells Comprising T790M-like-S EGFR Mutations to Second-Generation TKIs (EGFR G719A T790M): 0.4851
Response of Cells Comprising T790M-like-S EGFR Mutations to Second-Generation TKIs (EGFR G719S T790M): 0.3262
Response of Cells Comprising PACC EGFR Mutations to Second-Generation TKIs (EGFR L858R G724S): 0.0068
Response of Cells Comprising Ex20ins EGFR Mutations to Poziotinib (EGFR N771dupN G724S): 0.2167
Response of Cells Comprising PACC EGFR Mutations to Second-Generation TKIs (EGFR R776C): 0.03049
Response of Cells Comprising Ex20ins EGFR Mutations to Poziotinib (EGFR S768dupSVD): 0.09327
Response of Cells Comprising Ex20ins EGFR Mutations to Poziotinib (EGFR S768dupSVD V769M): 0.07874
Response of Cells Comprising Classical-Like EGFR Mutations to Second-Generation TKIs (EGFR T725M): 0.003297
sensitivity of Ex20ins mutations in vivo [1]: sensitive
sensitivity of mice harboring PDXs with G719A mutations [2]: most sensitive
clinical outcome of patient [3]: clinical benefit of stable disease and tumor shrinkage
